The results in this text go back to patent US20180353461A1, “USE OF CANNABINOIDS AS CERAMIDE-GENERATING ANTICANCER AGENTS IN TUMORS OF THE HEMATOPOIETIC AND LYMPHOID TISSUES” (priority 2014, published 2018).

Experiment [1] has as its system U266 cells. Put plainly: SPT expression, ceramide staining and SPT inhibition in U266 cells. Type of experiment: cell-based, human. As for the experimental part:
Except if otherwise indicated, for the viability assays primary cells were incubated 18 hours, with vehicle (with <0.15% DMSO) or cannabinoid. Meanwhile, the time course assays cells were performed at 0, 2, 6, 18 and 24 h. For the analysis of SPT activity, cells were co-incubated for the first 6 hours with the SPT inhibitor, myriocin, and the cannabinoid, WIN-55 or JWH-133.
Samples (15-25 ug/lane) were subjected to SDS/PAGE in pre-cast polyacrylamide gels AnykD (Bio-Rad Laboratories, Hercules, CA, USA) under reducing and denaturing conditions. Electrophoretic run was performed at a constant current of 15 mA per gel in a Mini-Protean® Tetra Cell (Bio-Rad Laboratories). Once proteins were separated by electrophoresis, were transferred onto PVDF membranes using Trans-Blot® Turbo™ System (Bio-Rad Laboratories). Electrotransference was conducted at constant amperage of 1.2 mA and at up to 25 V of voltage. The blotted membranes were then blocked with 2% bovine serum albumin [(BSA), Santa Cruz Biotechnology] in Tween-Tris buffer saline (TTBS) for 30 min with gentle agitation, and incubated overnight at 4° C. with corresponding primary antibody in TTBS. After twice washing with TTBS, membranes were incubated for 1-2 h at room temperature with suitable conjugated-HRP secondary antibody, and subjected to chemiluminescence detection using Western Blotting Luminol Reagent (Santa Cruz Biotechnology). Loading controls were carried out with an anti-beta-actin and anti-beta-tubulin antibodies (Sigma-Aldrich). Blots were captured using a digital imaging system ImageQuant LAS 4000 (Amersham GE Healthcare) and transferred to a digital image processing software to analyze (Adobe Photoshop CS2, version 9.0., Adobe Systems Inc., San Jose, Calif.).
After cannabinoids and/or antagonists or SPT inhibitor treatment, primary cells and cell lines were washed with PBS, collected and placed on slides (Menzel-Glaser, Thermo Fisher Scientific). Cells were fixed in cold 4% paraformaldehyde for 10 min, treated with sodium borohydride and, permeabilized in 0.02% Triton X-100 in PBS with 10% normal donkey serum for blocking. Then, cells were incubated with the anti-CB1 or anti-CB2 receptor antibodies, anti-active-caspase3, anti-ceramide in blocking buffer overnight at 4° C. in a humid chamber (Simport, Beloeil, QC, Canada). After washing with PBS, samples were further incubated for 90 min with Alexa 647- or Alexa 488—conjugated donkey secondary antibody. After twice washing, first with PBS and then with 50 mM Tris-HCl (pH 7.4), and were dipped in a solution of Sudan Black B (Sigma-Aldrich) in 70% methanol for 5 min. After immunocytochemistry, slides were mounted using Fluoromount Aqueous Mounting Medium (Sigma-Aldrich). Preparations were examined with an Olympus BX-61 microscope (Olympus, Hamburg, Germany) equipped with appropriate filters: FITC/Cy2 (green fluorophores) 460-490 nm bandpass excitation filter and 510-550 nm bandpass emission filter; rhodamine/Cy3 (red fluorophores) 541-551 nm excitation and 572-607 nm emission; and Cy5 (deep red fluorophore) 615-635 nm excitation and 655 nm longpass emission. Digital images were acquired with CellSens Dimension Software (Olympus) and contrasted with Photoshop CS2 Software (Adobe Systems Inc). […]
De novo synthesis of ceramides contribute to the apoptotic process triggered by cannabinoids. […] To this end, we analyzed the expression of serine palmitoyltransferase (SPT), the enzyme that catalyses the rate-limiting step of ceramide synthesis de novo. […]

Experiment [2] relates to HL60 cells. Put plainly: SPT expression, ceramide staining and SPT inhibition in HL60 cells. The experiment is classed as cell-based, human. On the procedure: Extracted proteins (15-25 ug/well) were separated by sodium dodecyl sulfate-polyacrylamide gel electrophoresis (SDS/PAGE) in pre-cast polyacrylamide gels AnykD (Bio-Rad Laboratories, Hercules, Calif., USA) under reducing and denaturing conditions. Electrophoretic run was performed at a constant current of 15 mA per gel in a Mini-Protean® Tetra Cell (Bio-Rad Laboratories) and were electrophoretically transferred onto PVDF membranes using Trans-Blot® Turbo™ System (Bio-Rad Laboratories). Blocking was performed with 2% bovine serum albumin [(BSA), Santa Cruz Biotechnology] in Tween-Tris buffer saline (TTBS). Membranes were incubated overnight at 4° C. with corresponding primary antibody in TTBS.
Cells were grown on glass cover slips (Menzel-Glaser, Thermo Fisher Scientific) in the presence or absence of WIN 55,212-2. The cover slips were then washed twice in phosphate-buffered saline (PBS), and the cells were fixed in cold 4% paraformaldehyde for 10 min, treated with sodium borohydride and, permeabilized in 0.02% Triton X-100 in PBS with 10% normal donkey serum for blocking. Cell nuclei were stained with diamidino-2-phenylindole [(DAPI), Pierce, Thermo Fisher Scientific)]. Then, cells were incubated with the anti-CB1 or anti-CB2 receptor antibodies or anti-ceramide in blocking buffer overnight at 4° C. in a humid chamber (Simport, Beloeil, QC, Canada). After washing with PBS, samples were further incubated for 90 min with Alexa 647- or Alexa 488-conjugated donkey secondary antibody.
After final washing in PBS, the cover slips were dried and mounted on slides using Fluoromount Aqueous Mounting Medium (Sigma-Aldrich). Changes in the protein expression were visualized by fluorescence microscopy using a specific excitation for each antibody. Digital images were acquired with CellSens Dimension Software (Olympus) and manipulated with Photoshop CS2 Software (Adobe Systems Inc). There was no labeling when the primary antibody was omitted (data not shown).
Additionally, de novo synthesis of ceramides also contribute to the apoptotic process triggered by cannabinoids in AML. We examined whether ceramides participate in the cannabinoid-induced apoptosis in leukemic cells. To this end, we analyzed the expression of serine palmitoyltransferase (SPT), the enzyme that catalyses the rate-limiting step of ceramide synthesis de novo. […] To ensure that this up-regulation of SPT entails an increased of ceramide synthesis, we examined the expression of ceramide by immunohistochemistry. […] Furthermore, to strengthen the engagement of the ceramide in cannabinoid-induced apoptosis, we analyzed the cannabinoid-induce apoptosis after inhibition of ceramide synthesis with Myoricin, a selective SPT inhibitor.

`CS(=O)(=O)O.Cc1c(C(=O)c2cccc3ccccc23)c2cccc3c2n1[C@H](CN1CCOCC1)CO3` [WIN-55, (R)-(+)-[2,3-dihydro-5-methyl-3-(4-morpholinylmethyl)-pyrrolo-[1,2,3]-1,4-benzoxazin-6-yl]-1-naphthalenylmethanone mesylate]: in experiment [1] (U266), the “SPT, 2 h after exposure” value was “moderate increase” and the “time at which SPT reached the maximal level” value worked out at 18 h. Moreover, the “ceramide by immunohistochemistry, compared to untreated cells” value in experiment [1] (U266, 50 uM, 18 hours) is “remarkable increase”. In addition, the “SPT expression level in myelomatous cells” value in experiment [1] (U266, WIN-55 50 uM) is recorded as “enhanced”. Besides, in experiment [2] (HL60), the “SPT expression level in leukemic cells” value is “enhanced” and the “SPT, 2 h after exposure” value was “moderate increase”. The “ceramide by immunohistochemistry, compared to untreated cells” value in experiment [2] (HL60, 50 uM, 18 hours) was “remarkable increase”.
